Experimental data from patent publication US20250034216A1, “STEREOSELECTIVE COVALENT LIGANDS FOR ONCOGENIC AND IMMUNOLOGICAL PROTEINS” (The Scripps Research Institute, priority 2021, published 2025).

Key:
Test in all cases: IA-DTB cysteine engagement
Type in all cases: binding
EPHX4_C287 = target: T1, EPHX4_C287 (Homo sapiens, UniProt Q8IUS5); conditions: 22Rv1 cells, 20 μM probe, 1 h, relative to DMSO
T1 construct: endogenous in cells; host or cells: 22Rv1
T1 sequence (Q8IUS5 1-362): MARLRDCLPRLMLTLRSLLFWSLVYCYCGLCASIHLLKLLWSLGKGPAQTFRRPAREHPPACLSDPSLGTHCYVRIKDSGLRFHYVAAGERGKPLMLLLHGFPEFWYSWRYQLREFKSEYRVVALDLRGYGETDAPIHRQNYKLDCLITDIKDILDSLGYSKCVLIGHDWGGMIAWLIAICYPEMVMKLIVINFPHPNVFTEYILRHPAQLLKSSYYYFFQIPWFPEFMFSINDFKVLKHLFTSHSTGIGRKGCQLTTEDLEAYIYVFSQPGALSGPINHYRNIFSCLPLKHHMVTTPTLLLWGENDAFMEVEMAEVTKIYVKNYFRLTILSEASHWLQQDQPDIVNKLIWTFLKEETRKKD
Summary of the method: (§1)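 Probe-exposed cells were lysed, IA-DTB-labeled, trypsinized and streptavidin-enriched. Multiplexed TMT quantitation gave engagement ratios versus DMSO, with non-tryptic peptides excluded and intensities normalized to median summed signal.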

PRAF2_C34 = target: T2, PRAF2_C34 (Homo sapiens, UniProt O60831); conditions: 22Rv1 cells, 20 μM probe, 1 h, relative to DMSO
T2 construct: endogenous in cells; host or cells: 22Rv1
T2 sequence (O60831 1-178): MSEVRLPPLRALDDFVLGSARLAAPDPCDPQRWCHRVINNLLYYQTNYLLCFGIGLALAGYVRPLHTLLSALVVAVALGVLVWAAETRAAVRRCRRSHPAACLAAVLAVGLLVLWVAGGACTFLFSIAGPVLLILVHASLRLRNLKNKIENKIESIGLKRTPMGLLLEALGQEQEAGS
Summary of the method: as §1

NSUN2_C271 = target: T3, NSUN2_C271 (Homo sapiens, UniProt Q08J23); conditions: 22Rv1 cells, relative to DMSO; for % engagement NSUN2_C271: 20 μM probe, 1 h; for % engagement NSUN2_271: 5 μM probe, 1 h (FIG. 5B)
T3 construct: endogenous in cells; host or cells: 22Rv1
Summary of the method: as §1

NT5DC2_C504 = target: T4, NT5DC2_C504 (Homo sapiens, UniProt Q9H857); conditions: 22Rv1 cells, 20 μM probe, 1 h, relative to DMSO
T4 construct: endogenous in cells; host or cells: 22Rv1
T4 sequence (Q9H857 1-520): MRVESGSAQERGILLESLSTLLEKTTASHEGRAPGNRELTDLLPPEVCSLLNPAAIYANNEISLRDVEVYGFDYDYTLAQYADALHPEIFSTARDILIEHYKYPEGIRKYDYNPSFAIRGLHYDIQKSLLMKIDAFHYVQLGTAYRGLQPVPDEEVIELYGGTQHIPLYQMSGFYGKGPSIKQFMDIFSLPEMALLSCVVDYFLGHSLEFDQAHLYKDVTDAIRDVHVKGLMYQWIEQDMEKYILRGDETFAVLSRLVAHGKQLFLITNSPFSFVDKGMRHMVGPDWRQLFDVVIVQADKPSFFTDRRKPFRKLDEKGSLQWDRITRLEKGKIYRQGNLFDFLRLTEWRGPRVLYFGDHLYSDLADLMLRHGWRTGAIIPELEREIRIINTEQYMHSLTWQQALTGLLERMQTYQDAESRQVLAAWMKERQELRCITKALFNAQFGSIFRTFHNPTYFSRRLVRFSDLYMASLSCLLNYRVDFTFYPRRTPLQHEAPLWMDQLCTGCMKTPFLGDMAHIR
Summary of the method: as §1

UNC13A_C999 = target: T5, UNC13A_C999 (Homo sapiens, UniProt Q9UPW8); conditions: 22Rv1 cells, 20 μM probe, 1 h, relative to DMSO
T5 construct: endogenous in cells; host or cells: 22Rv1
Summary of the method: as §1

T3 sequence (Q08J23 whole entry): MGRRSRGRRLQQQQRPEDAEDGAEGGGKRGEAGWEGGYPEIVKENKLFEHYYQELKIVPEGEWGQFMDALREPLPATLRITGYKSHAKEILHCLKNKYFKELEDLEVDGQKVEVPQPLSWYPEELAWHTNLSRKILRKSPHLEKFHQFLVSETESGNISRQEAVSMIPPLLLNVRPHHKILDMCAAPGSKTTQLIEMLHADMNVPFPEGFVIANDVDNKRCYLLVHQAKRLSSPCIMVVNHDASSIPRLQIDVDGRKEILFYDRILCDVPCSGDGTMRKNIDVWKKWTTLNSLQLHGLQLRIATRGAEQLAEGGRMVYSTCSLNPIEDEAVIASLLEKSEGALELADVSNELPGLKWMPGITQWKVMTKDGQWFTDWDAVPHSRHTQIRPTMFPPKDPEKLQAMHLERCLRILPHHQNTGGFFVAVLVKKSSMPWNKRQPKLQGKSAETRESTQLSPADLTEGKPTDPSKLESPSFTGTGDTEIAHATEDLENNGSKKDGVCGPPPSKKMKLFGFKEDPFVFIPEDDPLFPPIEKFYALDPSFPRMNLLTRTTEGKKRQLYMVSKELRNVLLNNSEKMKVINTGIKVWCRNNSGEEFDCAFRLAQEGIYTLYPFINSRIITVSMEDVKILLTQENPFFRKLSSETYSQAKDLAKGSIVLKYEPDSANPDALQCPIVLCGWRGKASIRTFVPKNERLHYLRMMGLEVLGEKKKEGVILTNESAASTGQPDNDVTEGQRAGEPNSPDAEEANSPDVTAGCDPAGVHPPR

Row | % engagement EPHX4_C287 (EPHX4_C287) | % engagement PRAF2_C34 (PRAF2_C34) | % engagement NSUN2_C271 (NSUN2_C271) | % engagement NT5DC2_C504 (NT5DC2_C504) | % engagement UNC13A_C999 (UNC13A_C999) | % engagement NSUN2_271 (NSUN2_C271) | SMILES
1 | 86.5% | 78.5% | −11% | 59% | 23.5% | – | C=CC(=O)N1C[C@H](c2ccc(Br)cc2)[C@H]1C(=O)Nc1cccc2cccnc12 [MY-3B, (2S,3S)-1-acryloyl-3-(4-bromophenyl)-N-(quinolin-8-yl)azetidine-2-carboxamide]
2 | – | – | – | – | – | −13.13% | CC#CC(=O)N1C[C@H](c2ccc(Br)cc2)[C@@H]1C(=O)Nc1cccc2cccnc12 [MY-45B, (2R,3S)-3-(4-bromophenyl)-1-(but-2-ynoyl)-N-(quinolin-8-yl)azetidine-2-carboxamide]
3 | 44.5% | 74% | 88.75% | 75% | 100% | 94.50% | C=CC(=O)N1C[C@H](c2ccc(Br)cc2)[C@@H]1C(=O)Nc1cccc2cccnc12 [MY-1B, (2R,3S)-1-acryloyl-3-(4-bromophenyl)-N-(quinolin-8-yl)azetidine-2-carboxamide]
4 | 28% | 55.5% | −8.25% | 54.5% | 100% | – | C=CC(=O)N1C[C@H](c2ccc(Br)cc2)[C@H]1C(=O)Nc1cccc2cccnc12 [MY-3A, (2S,3S)-1-acryloyl-3-(4-bromophenyl)-N-(quinolin-8-yl)azetidine-2-carboxamide]
5 | 23.5% | 76% | 42.25% | 85.5% | 54.5% | – | C=CC(=O)N1C[C@@H](c2ccc(Br)cc2)[C@H]1C(=O)Nc1cccc2cccnc12 [MY-1A, (2S,3R)-1-acryloyl-3-(4-bromophenyl)-N-(quinolin-8-yl)azetidine-2-carboxamide]
